Some test systems named below: A498 renal; DU-145 prostate; HCT-15 colon; K-562 leukemia; KM12 colon; MDA-N; OVCAR-5 ovarian; RPMI-8226 leukemia; SR leukemia; OVCAR-4 ovarian.
Experiment in all cases: NCI anticancer screen, dose series, 48 h

Molecules are shown by their SMILES.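 Interpolation was linear, between the two tested concentrations surrounding the appropriate level; five concentrations were tested over 48 hours in 96-well plates. TGI is the concentration that stops growth completely.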

Take `CCCOP(=O)(OCCC)OC(C(F)(F)F)C(F)(F)F`: the TGI in the experiment with A498 renal, in the experiment on DU-145 prostate, in the experiment on HCT-15 colon, in the experiment on K-562 leukemia, in the experiment on KM12 colon and in the experiment on MDA-N was over 100 µM each time. The TGI in the experiment with OVCAR-5 ovarian, in the experiment on RPMI-8226 leukemia and in the experiment with SR leukemia was over 100 µM in each case.

For the molecule `COC(=O)C1CCC(=O)N1C(c1cc(OC)c(OC)c(OC)c1)c1cccc2ccccc12` (centres undefined), the TGI with A498 renal, in the experiment on DU-145 prostate, in the experiment with HCT-15 colon, in the experiment with K-562 leukemia, in the experiment with KM12 colon and with MDA-N was over 100 µM each time. Moreover, the TGI with OVCAR-5 ovarian, with RPMI-8226 leukemia and in the experiment with SR leukemia was over 100 µM in each case.

`Cc1c(C)c(C)c(-n2c(=O)n(C)c(=O)n2-c2cc(C(C)(C)C)cc(C(C)(C)C)c2O)c(C)c1C`: the TGI in the experiment on A498 renal is 26.3 µM; in the experiment with DU-145 prostate it was 25.9 µM; in the experiment with HCT-15 colon, 22.5 µM; in the experiment with K-562 leukemia, 27.2 µM; in the experiment on KM12 colon it was over 45.3 µM; in the experiment on MDA-N it was 22.9 µM. The TGI in the experiment with OVCAR-4 ovarian is 21.4 µM; in the experiment with OVCAR-5 ovarian, 26.9 µM; with RPMI-8226 leukemia, 29 µM; in the experiment with SR leukemia it was over 46.9 µM.

As for `O=[N+]([O-])/C=C(\CS(=O)(=O)c1ccccc1)c1ccc2c(c1)OCO2`, the TGI was 81.2 µM in the experiment with A498 renal; over 100 µM in the experiment with DU-145 prostate; over 100 µM in the experiment with HCT-15 colon; over 100 µM in the experiment with K-562 leukemia; 71.7 µM in the experiment on KM12 colon; over 100 µM in the experiment with MDA-N. Besides, the TGI was 95.1 µM in the experiment with OVCAR-5 ovarian, over 100 µM in the experiment with RPMI-8226 leukemia and over 100 µM with SR leukemia.

With `O=c1[nH]nc(Nc2ccccc2)c2nnn(C3CCCCC3)c12`, the TGI in the experiment with DU-145 prostate, in the experiment on HCT-15 colon, in the experiment with K-562 leukemia, in the experiment with KM12 colon, with MDA-N and in the experiment with OVCAR-4 ovarian was over 100 µM each time. In addition, the TGI in the experiment on OVCAR-5 ovarian, with RPMI-8226 leukemia and with SR leukemia was over 100 µM each time.

With `Cc1c(Cl)cccc1N=NC(=O)NNc1cccc(Cl)c1C`, the TGI in the experiment on A498 renal came to 27.7 µM; in the experiment on DU-145 prostate it was 28.3 µM; in the experiment on HCT-15 colon, 30 µM; in the experiment with K-562 leukemia, 40.5 µM; in the experiment on MDA-N, 31 µM; in the experiment with OVCAR-4 ovarian, 25.9 µM. Also, the TGI in the experiment with OVCAR-5 ovarian was 27.1 µM; in the experiment with RPMI-8226 leukemia, over 100 µM; in the experiment on SR leukemia, 95 µM.

For the molecule `Cc1ccc(N=Nc2c(O)ccc3cc(S(=O)(=O)O)ccc23)cc1`, the TGI in the experiment with A498 renal, with DU-145 prostate, in the experiment on HCT-15 colon, in the experiment with K-562 leukemia, with KM12 colon and with MDA-N was over 100 µM each time. For the same molecule, the TGI in the experiment with OVCAR-4 ovarian, in the experiment with OVCAR-5 ovarian and in the experiment on RPMI-8226 leukemia was over 100 µM each time.

For `O=C(OC1CN2CCC1CC2)N(c1ccccc1)c1ccccc1` (centres undefined), the TGI in the experiment with A498 renal is 78.5 µM; with DU-145 prostate, over 100 µM; in the experiment with HCT-15 colon it was over 100 µM; in the experiment on K-562 leukemia, over 100 µM; in the experiment with MDA-N it was over 100 µM; in the experiment with OVCAR-4 ovarian it was over 100 µM. In addition, the TGI with OVCAR-5 ovarian, with RPMI-8226 leukemia and in the experiment on SR leukemia was over 100 µM in each case.

For the molecule `O=C(O)/C(=C\c1ccc(O)cc1)c1cccc2ccccc12`, the TGI in the experiment on A498 renal, in the experiment with DU-145 prostate, in the experiment on HCT-15 colon, in the experiment with K-562 leukemia, in the experiment on KM12 colon and in the experiment on MDA-N was over 100 µM each time. The TGI in the experiment with OVCAR-4 ovarian, in the experiment on OVCAR-5 ovarian and in the experiment on SR leukemia was over 100 µM in each case.

Regarding `Nn1c(=O)[nH]c2ncn(Cc3ccccc3)c2c1=O`, the TGI in the experiment with A498 renal, in the experiment with DU-145 prostate, in the experiment on HCT-15 colon, in the experiment with K-562 leukemia, in the experiment on KM12 colon and with MDA-N was over 100 µM throughout. In addition, the TGI in the experiment on OVCAR-4 ovarian, in the experiment with OVCAR-5 ovarian and in the experiment on SR leukemia was over 100 µM in each case.

With `CN1CCc2c(sc3ncn(Nc4ccc(Cl)cc4)c(=N)c23)C1`, the TGI in the experiment on A498 renal, in the experiment with DU-145 prostate, in the experiment on HCT-15 colon, in the experiment with K-562 leukemia, in the experiment with KM12 colon and in the experiment with MDA-N was over 100 µM throughout. In addition, the TGI in the experiment on OVCAR-4 ovarian, with OVCAR-5 ovarian and in the experiment on RPMI-8226 leukemia was over 100 µM in each case.

With `COc1ccc(-c2ncn(C[Si](C)(C)C)c2-c2ccc(OC)cc2)cc1`, the TGI with HCT-15 colon was found to be 18.3 µM; in the experiment on K-562 leukemia, 10.6 µM; with KM12 colon, 19.9 µM; with MDA-N, 10.9 µM; in the experiment with OVCAR-4 ovarian, 25.6 µM; in the experiment on OVCAR-5 ovarian it was 18.3 µM. The TGI stood at 4.57 µM in the experiment with RPMI-8226 leukemia and 66.2 µM in the experiment on SR leukemia.

Take `O=C(N/N=C\c1cccc2ccccc12)Nc1cccc2ccccc12`: the TGI with A498 renal was 51.3 µM; with DU-145 prostate, over 100 µM; with HCT-15 colon it was over 100 µM; in the experiment with K-562 leukemia, 15.6 µM; with KM12 colon it was over 100 µM; in the experiment on MDA-N, 21.2 µM. Further, the values for the TGI in the experiment on OVCAR-5 ovarian and in the experiment on SR leukemia were over 100 µM and 13.6 µM, respectively.

For the molecule `COC(=O)c1c2c(cc3c1CC1(Cc4cc5c(c(C(C)=O)c4C1)CCCC5)C3)CCCC2` (centres undefined), the TGI in the experiment with A498 renal, with HCT-15 colon, in the experiment on K-562 leukemia, with KM12 colon, in the experiment with MDA-N and in the experiment on OVCAR-4 ovarian was over 100 µM each time. Further, the results for the TGI with OVCAR-5 ovarian, with RPMI-8226 leukemia and in the experiment with SR leukemia were over 100 µM, 87.5 µM and 21 µM, respectively.

Take `CCCCc1ccc(Nc2nc(Cl)c3ccn(C4CC(Oc5ccc(C)cc5)C(COc5ccc(C)cc5)O4)c3n2)cc1` (centres undefined): the TGI in the experiment with A498 renal, in the experiment with DU-145 prostate, with HCT-15 colon, in the experiment with K-562 leukemia, in the experiment with KM12 colon and in the experiment on MDA-N was over 46.4 µM throughout. In addition, the TGI in the experiment on OVCAR-4 ovarian was over 31.6 µM; in the experiment with OVCAR-5 ovarian, over 31.6 µM; in the experiment on RPMI-8226 leukemia it was over 46.4 µM.
